{"source": "patent US4081433A", "about": "“D-Nle^4 -somatostatin and analogues thereof” (American Home Products Corporation, priority 1977, dated 1978)", "test_system": "growth hormone", "experiment": "Arginine-stimulated growth hormone secretion in Nembutal-anaesthetised rats", "type": "in vivo", "conditions": "albino male rats, 1 mg/kg subcutaneous", "description": "The activity of the product of the preceding preparatory example, (D-Nle^4)Somatostatin, was determined by the following procedure:\nAlbino male rats were administered Nembutal intraperitoneally at a dose of 50 milligrams per kilogram. Fifteen minutes later a subcutaneous injection of the test compound or physiological saline was administered. Ten minutes later 0.5 milliliters of arginine (300 millligrams per milliliter, pH 7.2) is injected into the heart. Five minutes after receipt of the arginine the rats are decapitated and blood is collected into trasylol-EDTA.", "note": "Bridge positions count the residues as written; N and C are the ends. Square brackets hold non-standard residues; d marks the D form. Peptide text beside a SMILES is read from it. dNle = CCCC[C@@H](N)C(=O)O"}
{"smiles": "CCCC[C@H]1NC(=O)[C@@H](NC(=O)CNC(=O)[C@H](C)N)CSSC[C@@H](C(=O)O)NC(=O)[C@H](CO)NC(=O)[C@H]([C@@H](C)O)NC(=O)[C@H](Cc2ccccc2)NC(=O)[C@H]([C@@H](C)O)NC(=O)[C@H](CCCCN)NC(=O)[C@H](Cc2c[nH]c3ccccc23)NC(=O)[C@H](Cc2ccccc2)NC(=O)[C@H](Cc2ccccc2)NC(=O)[C@H](CC(N)=O)NC1=O", "note": "[(D-Nle^4)Somatostatin, L-Alanyl-glycyl-L-cysteinyl-D-norleucyl-L-asparaginyl-L-phenylalanyl-L-phenylalanyl-L-tryptophyl-L-lysyl-L-threonyl-L-phenylalanyl-L-threonyl-L-seryl- L-cysteine cyclic (1.revreaction.14) disulfide] (H-AGC[dNle]NFFWKTFTSC-OH; disulfide 3-14)", "values": [{"measurement": "reducing secretion of growth hormone (in words)", "result": "effective agent for reducing secretion of growth hormone"}, {"measurement": "growth hormone in blood", "setting": "arginine injected 10 min later, blood 5 min after arginine, control 208±52 ng/ml, p<0.05", "result": "83 ± 23", "unit": "ng/mL"}]}
